According to patent US7799820B2, “2-Heterocycle-substituted indole derivatives for treating diabetes and associated conditions” (Banyu Pharmaceutical Co., Ltd., priority 2005, dated 2010):

target: T1, recombinant human liver GK (Homo sapiens, UniProt P35557); test: glucokinase activation assay (Thio-NADH, G6PDH-coupled); assay type: biochemical; conditions: final glucose concentration 2.5 mM; 30° C.
T1 construct: made in house; host or cells: E. coli
T1 sequence (P35557 1-466 isoform P35557-2): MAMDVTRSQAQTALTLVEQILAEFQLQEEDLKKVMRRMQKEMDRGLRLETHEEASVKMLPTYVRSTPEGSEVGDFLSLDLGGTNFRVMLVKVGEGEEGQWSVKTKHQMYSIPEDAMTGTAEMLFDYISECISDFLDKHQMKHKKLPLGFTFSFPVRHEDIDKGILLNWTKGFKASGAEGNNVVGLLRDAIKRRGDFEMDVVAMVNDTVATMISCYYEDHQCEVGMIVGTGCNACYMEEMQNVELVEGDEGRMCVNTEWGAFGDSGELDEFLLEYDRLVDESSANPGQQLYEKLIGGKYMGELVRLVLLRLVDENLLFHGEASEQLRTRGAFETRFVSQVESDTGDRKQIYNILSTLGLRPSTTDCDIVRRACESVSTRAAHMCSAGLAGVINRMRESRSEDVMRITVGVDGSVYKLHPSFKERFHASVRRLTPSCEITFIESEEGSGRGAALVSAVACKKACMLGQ
Description: The excellent glucokinase-activating effect of the compounds of formula (I) may be determined by a method described in literature (e.g., Diabetes, Vol. 45, pp. 1671-1677, 1996), or in accordance with it.
The glucokinase activity may be determined not by directly measuring glucose-6-phosphate but by measuring the level of Thio-NADH, which is produced when a reporter enzyme, glucose-6-phosphate dehydrogenase produces phosphogluconolactone from glucose-6-phosphate, and based on that level, the level of glucokinase activation may be determined.
In this assay, used was a recombinant human liver GK, which was expressed by E. coli as a FLAG fusion protein therein and was purified by ANTIFLAG M2 AFFINITY GEL (Sigma).
Using a flat-bottomed 96-well plate, the assay was carried out at 30° C. 69 μl of an assay buffer (25 mM Hepes Buffer, pH=7.2, 2 mM MgCl2, 1 mM ATP, 0.5 mM TNAD, 1 mM dithiothreitol) was put into the plate, and 1 μl of a DMSO solution of the compound or DMSO alone as a control was added thereto. Next, 20 μl of an enzyme mixture (FLAG-GK, 20 U/ml G6PDH) cooled in ice was added to it, and 10 μl of a substrate, 25 mM glucose was added to it, and the reaction was initiated (final glucose concentration=2.5 mM).
After the start of the reaction, the increase in the absorbance at 405 nm was measured for 12 minutes at intervals of 30 seconds, and the increase for the first 5 minutes was used for evaluating the compound tested. FLAG-GK was added so that the absorbance increase after 5 minutes in the presence of 1% DMSO could be from 0.04 to 0.06.
The OD level of the DMSO control was set as 100%; and the OD level of the test compound at different concentrations was determined. From the OD level at each concentration, Emax (%) and EC50 (μM) were computed and used as the index of the GK-activating potency of the compound.

| SMILES | EC50 |
| --- | --- |
| CS(=O)(=O)c1ccc(Oc2cc3cc(-c4ccccn4)[nH]c3cc2CN2CCCC2=O)cn1 [Example 3, 1-[(5-([6-(Methylsulfonyl)pyridin-3-yl]oxy)-2-pyridin-2-yl-1H-indol-6-yl)methyl]p-pyrrolidin-2-one] | 0.07 µM |
| Cc1nc(-c2ccc(Oc3cc4cc(-c5ccccn5)[nH]c4cc3CN3CCCC3=O)cn2)no1 [Example 6, 1-[(5-([6-(5-Methyl-1,2,4-oxadiazol-3-yl)pyridin-3-yl]oxy)-2-pyridin-2-yl-1H-indol-6-yl)methyl]pyrrolidin-2-one] | 0.05 µM |
| CCS(=O)(=O)c1ccc(Oc2cc3cc(-c4ccccn4)[nH]c3cc2Oc2cccnc2OC(F)F)cn1 [Example 2, 6-([2-(Difluoromethoxy)pyridin-3-yl]oxy)-5-([6-(ethylsulfonyl)pyridin-3-yl]oxy)-2-pyridin-2-yl-1H-indole] | 0.18 µM |
